According to article PMC7767053, “Functional Analysis of Odorant-Binding Proteins 12 and 17 from Wheat Blossom Midge Sitodiplosis mosellana Géhin (Diptera: Cecidomyiidae)” (Insects, 2020):
Where two headings read alike, the source gives them in different places.

How the values were obtained:
SmosOBP17 = SmosOBP17 (Sitodiplosis mosellana, UniProt A0A346RTY9); assay: Fluorescence competitive binding assay with 1-NPN probe, recombinant SmosOBP17; conditions: for Ki: calculated from IC50, Ki = [IC50]/(1 + [1-NPN]/K1-NPN); for binding to SmosOBP17 (in words): fluorescence competitive binding
Protocol: (§1) To determine binding affinities of SmosOBP12 and SmosOBP17 to host plant volatile compounds, fluorescence competitive binding assays were conducted using 1-N-phenyl-naphthylamine (1-NPN) as the fluorescent probe. Twenty-eight volatile compounds from winter wheat (Table 2) were selected based on our previous research. Both the probe and candidate ligands were dissolved in chromatographic-grade methanol to obtain 1 mM stock solutions, whereas recombinant SmosOBPs were diluted in 20 mM Tris-HCl (pH 7.4) to 2 μM. Fluorescence intensity was detected on an F-4600 fluorescence spectrophotometer (Hitachi, Tokyo, Japan) with a 1 cm light path quartz cuvette. Slits of both excitation and emissions were 10 nm in width. The probe was excited at 337 nm, and emission spectra were recorded between 370 and 550 nm.
(§2) Affinities of SmosOBPs to tested volatile ligands were measured by competition assays: to the 1 mL solution containing 2 μM recombinant protein and 2 μM 1-NPN, 1 mM solution of each putative volatile ligand (in a 2 µL aliquot) was added to final concentrations of 2–14 μM for SmosOBP12 and 2–40 μM for SmosOBP17, respectively. Maximal fluorescence intensities were plotted against ligand concentrations. Data were obtained from three independent measurements.
(§3) The Kd value was calculated using GraphPad Prism 5 (GraphPad Software Inc., La Jolla, CA, USA) via nonlinear regression for a unique site of binding. The inhibition constant (Ki) of each ligand competitor was calculated from the corresponding IC50 value (the concentration of competitor displacing 50% of initial fluorescence intensity) according to the equation: Ki = [IC50]/(1 + [1-NPN]/K1-NPN), where [1-NPN] is the free concentration of 1-NPN, and K1-NPN is the dissociation constant of the SmosOBPs/1-NPN complex.

SmosOBP12 = SmosOBP12 (Sitodiplosis mosellana, UniProt A0A346RTY7); assay: Fluorescence competitive binding assay with 1-NPN probe, recombinant SmosOBP12; conditions: for Ki: calculated from IC50, Ki = [IC50]/(1 + [1-NPN]/K1-NPN); for binding to SmosOBP12 (in words): fluorescence competitive binding
Protocol: as §1, §2, §3

[1] = displacement of 1-NPN, 2 μM protein, 2 μM 1-NPN, ligand 2–40 μM, three independent measurements, read-out: SmosOBP17 IC50
[2] = displacement of 1-NPN, 2 μM protein, 2 μM 1-NPN, ligand 2–14 μM, three independent measurements, read-out: SmosOBP12 IC50

Sequence of SmosOBP17 (A0A346RTY9 entry or part of it): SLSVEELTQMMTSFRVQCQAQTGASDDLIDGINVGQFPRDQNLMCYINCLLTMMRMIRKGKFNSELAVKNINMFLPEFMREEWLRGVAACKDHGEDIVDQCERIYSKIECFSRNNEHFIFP
Sequence of SmosOBP12 (A0A346RTY7 entry or part of it): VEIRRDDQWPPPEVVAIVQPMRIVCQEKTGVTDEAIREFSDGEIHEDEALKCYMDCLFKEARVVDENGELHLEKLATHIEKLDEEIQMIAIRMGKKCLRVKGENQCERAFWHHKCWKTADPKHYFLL

`c1ccc(Nc2cccc3ccccc23)cc1` [1-NPN, 1-N-phenyl-naphthylamine, reference compound] was tested, and the Kd (SmosOBP17; 2 µM protein titrated with 1-NPN 0–24 µM, read-out: dissociation constant (Kd) of SmosOBP17 with 1-NPN) was 3.02 µM and the Kd (SmosOBP12; 2 µM protein titrated with 1-NPN 0–24 µM, read-out: dissociation constant (Kd) of SmosOBP12 with 1-NPN) was 4.26 µM.

In the case of `CCCCC(CC)CO` (stereo not shown) [2-Ethyl hexanol], the Ki (SmosOBP17) is reported as > 30 µM, the IC50 (SmosOBP17; [1]) is reported as > 40 µM and the “binding to SmosOBP17 (in words)” value (SmosOBP17) is reported as “did not bind”. It also gave a Ki (SmosOBP12; read-out: SmosOBP12 Ki) of 6.36 ± 0.25 µM and an IC50 (SmosOBP12; [2]) of 7.86 ± 0.31 µM.

In the case of `CCCCC(C)=O` [2-Hexanone], the IC50 (SmosOBP17) is reported as > 40 µM, the IC50 (SmosOBP12) is reported as 12.66 ± 0.08 µM and the Ki (SmosOBP12; SmosOBP12 Ki) is reported as 10.25 ± 0.06 µM.

In the case of `CCCCCCCCCCCC(C)=O` [2-Tridecanone], the Ki (SmosOBP17) is reported as > 30 µM, the IC50 (SmosOBP17; [1]) is reported as > 40 µM and the “binding to SmosOBP17 (in words)” value (SmosOBP17) is reported as “did not show any affinity”. The Ki (SmosOBP12; read-out: SmosOBP12 Ki) was > 11.3 µM, the IC50 (SmosOBP12; [2]) was > 14 µM and the “binding to SmosOBP12 (in words)” value (SmosOBP12) was “did not show any affinity”.

In the case of `CCCC(=O)CC` [3-Hexanone], the Ki (SmosOBP17) is reported as 27.87 ± 0.04 µM, the IC50 (SmosOBP17; [1]) is reported as 37.1 ± 0.06 µM and the Ki (SmosOBP12; read-out: SmosOBP12 Ki) is reported as 6.26 ± 0.03 µM. It also gave an IC50 (SmosOBP12; [2]) of 7.74 ± 0.04 µM.

For `CCCCC(=O)CCCC` [5-Nonanone], the IC50 (SmosOBP17; [1]) was > 40 µM, the Ki (SmosOBP12; read-out: SmosOBP12 Ki) was 6.72 ± 0.1 µM and the IC50 (SmosOBP12; [2]) was 8.32 ± 0.14 µM.

With `CCCCCCCCCCCC=O` [Dodecanal] the Ki (SmosOBP17) was > 30 µM, the IC50 (SmosOBP17; [1]) was > 40 µM and the “binding to SmosOBP17 (in words)” value (SmosOBP17) was “did not bind”. The Ki (SmosOBP12; read-out: SmosOBP12 Ki) was 8.06 ± 0.37 µM, the IC50 (SmosOBP12; [2]) was 9.94 ± 0.44 µM and the “binding to SmosOBP12 (in words)” value (SmosOBP12) was “bound”.

In the case of `CCCCCCCCCCCC` [Dodecane], the Ki (SmosOBP17) is reported as > 30 µM, the IC50 (SmosOBP17; [1]) is reported as > 40 µM and the Ki (SmosOBP12; read-out: SmosOBP12 Ki) is reported as > 11.3 µM. For the same compound, the IC50 (SmosOBP12; [2]) was > 14 µM.

`CCCCCCOC(=O)CC` [Hexyl propionate] was tested, and the Ki (SmosOBP12; read-out: SmosOBP12 Ki) was 5.9 ± 0.12 µM and the IC50 (SmosOBP12; [2]) was 7.28 ± 0.16 µM.

In the case of `CC(=O)OCCCCCC(C)C` [Isooctyl acetate], the Ki (SmosOBP17) is reported as > 30 µM, the IC50 (SmosOBP17; [1]) is reported as > 40 µM and the “binding to SmosOBP17 (in words)” value (SmosOBP17) is reported as “did not show any affinity”. For the same compound, the Ki (SmosOBP12; read-out: SmosOBP12 Ki) was > 11.3 µM, the IC50 (SmosOBP12; [2]) was > 14 µM and the “binding to SmosOBP12 (in words)” value (SmosOBP12) was “did not show any affinity”.

In the case of `CCCCCCCCCCCCCCC` [Pentadecane], the Ki (SmosOBP17) is reported as > 30 µM, the IC50 (SmosOBP17; [1]) is reported as > 40 µM and the Ki (SmosOBP12; read-out: SmosOBP12 Ki) is reported as > 11.3 µM. For the same compound, the IC50 (SmosOBP12; [2]) was > 14 µM.

`CCCCCOC(=O)CCCC` [Pentyl pentanoate] was tested, and the IC50 (SmosOBP17; [1]) was > 40 µM, the Ki (SmosOBP12; read-out: SmosOBP12 Ki) was 4.24 ± 0.03 µM and the IC50 (SmosOBP12; [2]) was 5.23 ± 0.01 µM.

For `CCCCCCCCCCCCC` [Tridecane], the Ki (SmosOBP17) was > 30 µM, the IC50 (SmosOBP17; [1]) was > 40 µM and the Ki (SmosOBP12; read-out: SmosOBP12 Ki) was > 11.3 µM. The IC50 (SmosOBP12; [2]) was > 14 µM.

`CCCCCCCCCCCO` [Undecanol] was tested, and the IC50 (SmosOBP17; [1]) was > 40 µM, the Ki (SmosOBP12; read-out: SmosOBP12 Ki) was 4.39 ± 0.02 µM and the IC50 (SmosOBP12; [2]) was 5.43 ± 0.03 µM.

`CC1=CC[C@@]23CC1C(C)(C)[C@@H]2CC[C@H]3C` [α-Cedrene] was tested, and the Ki (SmosOBP17) was > 30 µM, the IC50 (SmosOBP17; [1]) was > 40 µM and the “binding to SmosOBP17 (in words)” value (SmosOBP17) was “did not show any affinity”. For the same compound, the Ki (SmosOBP12; read-out: SmosOBP12 Ki) was > 11.3 µM, the IC50 (SmosOBP12; [2]) was > 14 µM and the “binding to SmosOBP12 (in words)” value (SmosOBP12) was “did not show any affinity”.

For `C/C1=C\CC/C(C)=C/CC(C)(C)/C=C/C1` [α-Humulene], the Ki (SmosOBP17) was > 30 µM, the IC50 (SmosOBP17; [1]) was > 40 µM and the “binding to SmosOBP17 (in words)” value (SmosOBP17) was “did not show any affinity”. The Ki (SmosOBP12; read-out: SmosOBP12 Ki) was > 11.3 µM, the IC50 (SmosOBP12; [2]) was > 14 µM and the “binding to SmosOBP12 (in words)” value (SmosOBP12) was “did not show any affinity”.

With `CC1=CCC2CC1C2(C)C` (stereo not drawn) [α-Pinene] the IC50 (SmosOBP17) was > 40 µM, the “binding to SmosOBP17 (in words)” value (SmosOBP17) was “did not bind” and the IC50 (SmosOBP12) was 7.63 ± 0.06 µM. It also gave a Ki (SmosOBP12; SmosOBP12 Ki) of 6.17 ± 0.04 µM.

In the case of `C=C1CC/C=C(\C)CC[C@@H]2[C@@H]1CC2(C)C` [β-Caryophyllene], the IC50 (SmosOBP17) is reported as > 40 µM, the “binding to SmosOBP17 (in words)” value (SmosOBP17) is reported as “did not show any affinity” and the IC50 (SmosOBP12) is reported as > 14 µM. The Ki (SmosOBP12; SmosOBP12 Ki) was > 11.3 µM and the “binding to SmosOBP12 (in words)” value (SmosOBP12) was “did not show any affinity”.
